Data reported in paper PMC5706701, “Development of a homogenous high-throughput assay for inositol hexakisphosphate kinase 1 activity” (PLoS ONE, 2017).
Structures can show the parent of a compound that is named as a salt. Where two headings read alike, the source gives them in different places.

Target: T1, Human IP6K1 (Homo sapiens, UniProt Q92551)
T1 construct: GST (N, cleaved yes); made in house; host or cells: C43 E. coli, pGEX-6P-2
Test: IP6K1 high-throughput screen of the Sigma LOPAC (ADP-Glo Max, single point);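 also: final compound concentration 10µM in 5% DMSO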
Format: biochemical

[1] = LOPAC single-point screen, ADP-Glo Max raw signal per well
[2] = LOPAC single-point screen, Z-score from raw signal with plate average and StDev
[3] = LOPAC single-point screen, ADP-Glo Max luminescence raw signal per well
[4] = LOPAC single-point screen, Z-score from plate average and StDev
[5] = LOPAC single-point screen, Z-score against plate average and StDev
[6] = LOPAC single-point screen, Z-score relative to plate average and StDev
[7] = Sigma LOPAC single-point screen, ADP-Glo Max raw signal per well
[8] = Sigma LOPAC single-point screen, Z-score from plate average and StDev

T1 sequence (Q92551 whole entry): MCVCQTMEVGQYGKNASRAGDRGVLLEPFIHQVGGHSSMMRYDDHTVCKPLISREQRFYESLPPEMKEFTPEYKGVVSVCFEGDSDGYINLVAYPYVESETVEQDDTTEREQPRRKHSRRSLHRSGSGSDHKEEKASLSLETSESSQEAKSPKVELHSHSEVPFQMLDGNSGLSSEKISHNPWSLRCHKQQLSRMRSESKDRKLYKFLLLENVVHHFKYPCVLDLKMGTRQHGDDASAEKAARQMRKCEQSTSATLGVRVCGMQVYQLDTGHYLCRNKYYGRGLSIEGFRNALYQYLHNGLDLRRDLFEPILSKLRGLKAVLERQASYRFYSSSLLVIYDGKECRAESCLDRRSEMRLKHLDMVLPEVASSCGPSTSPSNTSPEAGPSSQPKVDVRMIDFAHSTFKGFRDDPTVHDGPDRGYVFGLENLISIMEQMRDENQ

## Nc1ncnc2c1c(-c1ccc(Oc3ccccc3)cc1)cn2C1CCCC1
[1]
  Raw Signal: 53911
[2]
  Z-score: -0.2551

## NC(N)=Nc1ccc2[nH]c3c(c2c1)C[C@@]1(O)[C@H]2Cc4ccc(O)c5c4[C@@]1(CCN2CC1CC1)[C@H]3O5.O=C(O)C(F)(F)F.O=C(O)C(F)(F)F
[3]
  Raw Signal: 65830
[4]
  Z-score: 2.166

## C[C@@H](NC(=O)/C(C#N)=C/c1ccc(O)c(O)c1)c1ccccc1 [Tyrphostin AG 527]
[1]
  Raw Signal: 54153
[2]
  Z-score: -0.3635

## CN(C)CCC(c1ccc(Br)cc1)c1ccccn1.O=C(O)/C=C\C(=O)O (racemic) [(±)-Brompheniramine maleate]
[1]
  Raw Signal: 59748
[5]
  Z-score: 0.3232

## NC(=O)CI [Iodoacetamide]
[3]
  Raw Signal: 64727
[4]
  Z-score: 1.942

## O=C(O)/C=C1\CCCc2ccccc2C1O (stereo not shown) [NCS-382]
[3]
  Raw Signal: 49943
[6]
  Z-score: -0.7478

## Nc1ncnc2c1ncn2[C@@H]1O[C@H](CO)[C@@H](O)[C@H]1O [Adenosine]
[1]
  Raw Signal: 56689
[2]
  Z-score: -0.2156

## O=C1Nc2ccc(I)cc2/C1=C/c1cc(Br)c(O)c(Br)c1 [GW5074]
[3]
  Raw Signal: 51521
[6]
  Z-score: -0.7405

## O=c1[nH]c2ccccc2n1CCCN1CCN(C(c2ccccc2)c2ccccc2)CC1 [Oxatomide]
[1]
  Raw Signal: 55062
[5]
  Z-score: 0.1123

## CC(N)C(O)c1ccc(O)c(O)c1 (single isomer, unassigned; (-)) [(-)-alpha-Methylnorepinephrine]
[3]
  Raw Signal: 45337
[6]
  Z-score: -1.996

## CC(C)Cn1c(=O)n(C)c(=O)c2[nH]cnc21 [3-Isobutyl-1-methylxanthine]
[7]
  Raw Signal: 62159
[8]
  Z-score: 1.305

## CC(C)=CCC/C(C)=C/CC/C(C)=C/CSc1ccccc1C(=O)O [Farnesylthiosalicylic acid]
[3]
  Raw Signal: 51239
[6]
  Z-score: -0.7977

## CCc1cccc2c3c([nH]c12)C(CC)(CC(=O)O)OCC3 (stereo not shown) [Etodolac]
[7]
  Raw Signal: 60333
[8]
  Z-score: 1.049

## C[C@H](CS)C(=O)N1CCC[C@H]1C(=O)O [Captopril]
[1]
  Raw Signal: 58254
[5]
  Z-score: 0.06004

## NC(Cc1ccc(Cl)cc1)C(=O)O (racemic) [(±)-p-Chlorophenylalanine]
[3]
  Raw Signal: 55203
[6]
  Z-score: -0.4773

## CCCCCCC(C(C)O)n1cnc2c(N)ncnc21.Cl (stereo not shown)
[3]
  Raw Signal: 51235
[6]
  Z-score: -0.7986

## OC[C@H]1O[C@@H](n2cnc3c(Nc4ccccc4)ncnc32)[C@H](O)[C@@H]1O [N6-Phenyladenosine]
[1]
  Raw Signal: 55025
[2]
  Z-score: -0.194

## CCCc1c(OCCCOc2ccc(OCC(=O)O)cc2)ccc(C(C)=O)c1O [L-165,041]
[7]
  Raw Signal: 57961
[8]
  Z-score: 0.5674

## CCCCC/C=C\C/C=C\C/C=C\C/C=C\CCCC(=O)NCC(=O)O [N-arachidonylglycine]
[1]
  Raw Signal: 55672
[2]
  Z-score: -0.3947

## COC(=O)[C@@H](N)CCCN=C(N)N[N+](=O)[O-].Cl
[7]
  Raw Signal: 58464
[8]
  Z-score: 0.6839

## NN=C(N)N.NN=C(N)N.O=S(=O)(O)O [Aminoguanidine hemisulfate]
[1]
  Raw Signal: 58107
[5]
  Z-score: 0.03415

## CC(=O)O[C@]1(C(C)=O)CC[C@H]2[C@@H]3C=C(Cl)C4=CC(=O)[C@@H]5C[C@@H]5[C@]4(C)[C@H]3CC[C@@]21C [Cyproterone acetate]
[7]
  Raw Signal: 63165
[8]
  Z-score: 0.925

## CCCCCCCCCCCCCCCCCCNC(=O)OCC(COP(=O)([O-])OCC[n+]1ccsc1)OC (stereo not shown) [CV-3988]
[3]
  Raw Signal: 52703
[6]
  Z-score: -0.6452

## CNC(=O)[C@H]1O[C@@H](n2cnc3c(NCc4cccc(I)c4)ncnc32)[C@H](O)[C@@H]1O [IB-MECA]
[3]
  Raw Signal: 49701
[6]
  Z-score: -0.7885

## NC(CCP(=O)(O)O)C(=O)O (racemic) [(±)-2-Amino-4-phosphonobutyric acid]
[1]
  Raw Signal: 55594
[2]
  Z-score: -0.4085

## O=c1[nH]cc(F)c(=O)[nH]1 [5-Fluorouracil]
[3]
  Raw Signal: 52294
[6]
  Z-score: -0.5835

## Cc1ccc(/C(=C\CN2CCCC2)c2ccccn2)cc1.Cl [Triprolidine hydrochloride]
[1]
  Raw Signal: 57463
[5]
  Z-score: 0.2796

## CCN(CC)c1ncnc2c1ncn2[C@@H]1O[C@H](COP(=O)([O-])OP(=O)([O-])C(Br)(Br)P(=O)([O-])O)[C@@H](O)[C@H]1O.[Na+].[Na+].[Na+] [ARL 67156 trisodium salt]
[3]
  Raw Signal: 54051
[6]
  Z-score: -0.6802

## NC(=O)NO [Hydroxyurea]
[3]
  Raw Signal: 51854
[6]
  Z-score: -0.6728

## N[C@@H](CCCC(=O)O)C(=O)O [L-2-aminoadipic acid]
[1]
  Raw Signal: 59199
[5]
  Z-score: 0.2265

## Cl.c1ccc(CN2CCC3(CCCc4ccccc43)CC2)cc1 [L-687,384 hydrochloride]
[7]
  Raw Signal: 58533
[8]
  Z-score: 0.6955

## NC(CCCCCP(=O)(O)O)C(=O)O (racemic) [(±)-2-Amino-7-phosphonoheptanoic acid]
  Raw Signal: 66212
  Z-score: 1.462

## C[C@](N)(Cc1ccc(O)c(O)c1)C(=O)O [L-alpha-Methyl DOPA]
[3]
  Raw Signal: 24071
[6]
  Z-score: -5.095

## O=S(=O)(NCCNC/C=C/c1ccc(Br)cc1)c1cccc2cnccc12 [H-89]
[3]
  Raw Signal: 53512
[6]
  Z-score: -0.7752

## NC12CC3CC(CC(C3)C1)C2 [Amantadine hydrochloride]
[3]
  Raw Signal: 68782
[4]
  Z-score: 1.914

## Nc1ncn([C@@H]2O[C@H](CO)[C@@H](O)[C@H]2O)c(=O)n1 [5-azacytidine]
[3]
  Raw Signal: 54885
[6]
  Z-score: -0.5333

## CC#CCOC(=O)c1c(C)nc2sc3c(c2c1N)CCC(O)C3 (stereo not shown) [SB 205384]
[7]
  Raw Signal: 57931
[8]
  Z-score: 0.3705

## COc1ccccc1NC(=O)Nc1nc(-c2cccnc2)nc2ccccc12 [VUF 5574]
[7]
  Raw Signal: 58097
[8]
  Z-score: 0.4028

## Cl.Nc1c2c(nc3ccccc13)CCCC2
  Raw Signal: 49916
  Z-score: -1.409

## CCN1C(=O)C=CC1=O [N-Ethylmaleimide]
[1]
  Raw Signal: 55064
[5]
  Z-score: -0.02093

## CCCN(CCC)CCc1cccc2c1CC(=O)N2 [Ropinirole hydrochloride]
[1]
  Raw Signal: 53968
[2]
  Z-score: -0.3994

## NC(=O)C1=CN([C@@H]2O[C@H](COP(=O)([O-])OP(=O)([O-])OC[C@H]3O[C@@H](n4cnc5c(N)ncnc54)[C@H](OP(=O)([O-])[O-])[C@@H]3O)[C@@H](O)[C@H]2O)C=CC1.[Na+].[Na+].[Na+].[Na+] [NADPH tetrasodium]
[7]
  Raw Signal: 57869
[8]
  Z-score: 0.584

## Nc1ncnc2c1ncn2[C@@H]1O[C@H](COP(=O)(O)CP(=O)(O)OP(=O)([O-])[O-])[C@@H](O)[C@H]1O.[Li+].[Li+]
[3]
  Raw Signal: 51012
[6]
  Z-score: -0.5682

## C/C(O)=C(\C#N)C(=O)Nc1cc(Br)ccc1Br [LFM-A13]
[7]
  Raw Signal: 58610
[8]
  Z-score: 0.7085

## COc1cc(OC)cc(C(CNc2ncnc3c2ncn3[C@@H]2O[C@H](CO)[C@@H](O)[C@H]2O)c2ccccc2C)c1 (stereo partly shown) [DPMA]
[1]
  Raw Signal: 54367
[2]
  Z-score: -0.1625

## CCCCC1C(=O)N(c2ccccc2)N(c2ccccc2)C1=O [Phenylbutazone]
[2]
  Z-score: -0.2764

## CC(C)[C@@H]1NC(=O)[C@H](CCCCN)NC(=O)[C@@H](Cc2c[nH]c3ccccc23)NC(=O)[C@H](Cc2ccc(O)cc2)NC(=O)[C@H](C)N(C)C(=O)[C@H](Cc2ccccc2)NC1=O [Seglitide]
[1]
  Raw Signal: 55030
[2]
  Z-score: -0.1931

## CCN(CC)CC#CCOC(=O)C(O)(c1ccccc1)C1CCCCC1 (stereo not shown) [Oxybutynin Chloride]
[1]
  Raw Signal: 55631
[5]
  Z-score: 0.2079

## C[N+]1(CCCCC[N+]2(C)CCCC2)CCCC1.O=C([O-])C(O)C(O)C(=O)O.O=C([O-])C(O)C(O)C(=O)O [Pentolinium di[L(+)-tartrate]]
[7]
  Raw Signal: 60160
[8]
  Z-score: 0.9689

## C=CC1=C(C)c2cc3[nH]c(cc4nc(cc5[nH]c(cc1n2)c(C)c5CCC(=O)O)C(CCC(=O)O)=C4C)c(C)c3C=C [Protoporphyrin IX disodium]
[1]
  Raw Signal: 54546
[2]
  Z-score: -0.2871

## CC[N+](CC)(CC)CCOc1cccc(OCC[N+](CC)(CC)CC)c1OCC[N+](CC)(CC)CC [Gallamine triethiodide]
[1]
  Raw Signal: 56632
[5]
  Z-score: 0.2975

## N[C@H](CCCCCP(=O)(O)O)C(=O)O [D(-)-2-Amino-7-phosphonoheptanoic acid]
[7]
  Raw Signal: 62778
[8]
  Z-score: 0.8568

## C=C(C)[C@H]1CN[C@H](C(=O)O)[C@H]1CC(=O)O [Kainic acid]
  Raw Signal: 54485
  Z-score: 0.01537

## O=C(O)C1=CCNCC1 [Isoguvacine hydrochloride]
[1]
  Raw Signal: 53600
[2]
  Z-score: -0.3182

## Cc1cccc(C(=O)NCN2CCN(c3ccccc3C#N)CC2)c1.O=C(O)/C=C\C(=O)O [PD 168,077 maleate]
[3]
  Raw Signal: 64247
[4]
  Z-score: 1.598

## Br.CCCN1CCC2c3cc(O)ccc3CCC21 (racemic) [cis-(±)-8-OH-PBZI hydrobromide]
[1]
  Raw Signal: 53901
[5]
  Z-score: -0.08275

## Nc1nc2[nH]c(=O)cnc2c(=O)[nH]1 [Isoxanthopterin]
[7]
  Raw Signal: 59100
[8]
  Z-score: 0.7908

## Br.Br.N=C(N)SCCN
[1]
  Raw Signal: 59514
[5]
  Z-score: 0.282

## CC(=O)c1c(O)c(C)c(O)c(Cc2c(O)c3c(c(C(=O)/C=C/c4ccccc4)c2O)OC(C)(C)C=C3)c1O [Rottlerin]
[1]
  Raw Signal: 55469
[2]
  Z-score: -0.1078

## COc1cc2c(CCNC(C)=O)c[nH]c2cc1Cl [6-Chloromelatonin]
[7]
  Raw Signal: 61765
[8]
  Z-score: 0.6784

## N=C(N)c1ccc(OCCCCCOc2ccc(C(=N)N)cc2)cc1 [Pentamidine isethionate]
[1]
  Raw Signal: 54696
[5]
  Z-score: 0.05083
